Source: patent US20180110742A1, “NMDA ANTAGONISTS FOR THE TREATMENT OF MENTAL DISORDERS WITH OCCURRENCE OF […]/OR IMPULSIVE BEHAVIOR” (ICM (INSTITUT DU CERVEAU ET DE LA MOELLE EPINIERE), priority 2015, published 2018)

Tests used:
[1] = system: rhesus monkeys; experiment: Delayed saccade oculomotor paradigm (inhibition of premature saccades) after i.m. ketamine or saline; format: in vivo, rhesus monkey
Description: FIG. 2 is a diagram showing the sequence of events. The trial started with the appearance of a fixation cross for a randomized duration followed by the appearance of two empty ‘boxes’, one at the center of the screen and at a 9-deg eccentric position. After the appearance of the two boxes, a target was flashed in the central one for 50 milliseconds. Extinction of the central target marked the beginning of the delay period that could last either 400, 900, 1400 or 1900 ms. At the end of the delay period, a target appeared for 50 ms in the eccentric box and the subject had to make a saccade to the eccentric box within a 400 ms grace period.
The experimental paradigm was designed to create a conflict between the urge to make a saccade to the peripheral box and the necessity to maintain fixation until the eccentric target appeared (FIG. 2). This required a strong inhibition of premature saccades before the appearance of the eccentric target.
A total of 14104 saccades were analyzed in the three monkeys of the present study (L, S, Y). […] Positive values represent saccades occurring after target onset. We classified saccades as visually-guided for latencies longer than 100 ms. Latencies shorter than 100 ms represent premature (anticipatory) saccades. It can be observed that in the control condition (dashed curve on FIG. 3A), average saccadic latencies tended on average to decrease with increasing delay duration, more premature saccades occurring during long delays. […] However, a significant interaction between injected product (placebo or ketamine) and delay duration was found (F3; 6.012=8.195; P=0.015). […] Saccades in short delay trials (400 or 900 ms delays) were less affected than saccades when the delay was longer (1400 or 1900 ms). This influence of ketamine on movement latency was reproducible between monkeys.
Three monkeys participated in the present study (referred to as L, S, Y). Apparatus
Subjects sat in darkness, facing a CRT screen, which presented stimuli at a frequency of 60 Hz. An EyeLink 1000 infrared eye tracking system (SR Research, Mississauga, Ontario) was used to record movements of the right eye at 1 KHz. All experiments were run with homemade stimulus generation software based on a real time Linux kernel (Xenomaï). Stimulus display and oculomotor data collection were synchronized on a frame-by-frame basis. Saccades were detected offline in MATLAB (MathWorks, Natic, Mass.) with a velocity threshold of 30 deg/sec.
Each trial started with an initial fixation period (referred to as ‘initial fixation’), with a small cross (0.7 deg) appearing on the CRT screen for a random duration (850±100 ms; see ‘X’ on FIG. 1). At the end of this random delay, two empty square ‘boxes’ appeared on the screen (1.4×1.4 deg), one in the center of the screen and one 9 deg eccentric, randomly to the right or to the left. […] Afterwards, a square target (1.4×1.4 deg) was flashed in the central box for 50 ms. Extinction of the initial target indicated to subjects the beginning of the delay period. Subjects were required to hold on fixation of the central box until another target (1.4×1.4 deg) was briefly presented for 50 ms in the eccentric box. In the variable fore period design, the delay period could take one of 4 different values with the same probability: 400 ms, 900 ms, 1400 ms and 1900 ms. In order to receive reward, subjects had to maintain fixation of the central box and wait for the appearance of the eccentric target. This required a strong inhibition of early saccades before the appearance of the eccentric target. Early saccades were not rewarded. This paradigm was designed to test inhibition during the delay period.
Each experimental session started with a block of 200 trials before injection to measure the baseline saccadic latency on a day-by-day basis. On a randomly selected day ketamine (0.250 mg/kg) was injected i.m. or a placebo saline solution (NaCl 0.9%) of the same volume (0.3 ml). […]

[2] = system: supplementary eye field (SEF) neurons; experiment: Single-neuron recordings of saccade-related and fixation neurons during the saccade task; format: in vivo, rhesus monkey; conditions: 0.25 mg/kg i.m.; for average neuronal activity of fixation units/neurons: delay and saccadic period, 0.25 mg/kg
Description: FIG. 9 is a graph showing the average neuronal activity (spike density) of 30 movement-related supplementary eye field (SEF) neurons during fixation (negative time), delay (between the two vertical dashed lines) and after saccade appearance (after the second dashed lined). Group data. A: delay duration: 400 ms. B: delay duration: 900 ms. C: delay duration: 1400 ms. D: delay duration: 1900 ms. […] This can be associated with the decrease of premature saccades.
FIG. 10 is a graph showing the average neuronal activity of “fixation” units during fixation, delay and saccadic period. Group data. A: delay duration: 400 ms. B: delay duration: 900 ms. C: delay duration: 1400 ms. D: delay duration: 1900 ms. […] This could be related to the enhanced inhibition capacity and reduction of impulsive behavior observed.
Neuronal activity of two animals was recorded on neurons with phasic discharge during the saccade (saccadic-relayed neurons, FIG. 9) and neurons with tonic activity when the eye is immobile (fixation neurons, FIG. 10). Average activity of 30 neurons is shown in the control condition (no ketamine) and after injection of 0.25 mg/kg ketamine i.m.
One male and one female rhesus monkey were used in this study. All procedures were approved by the Institutional Animal Care and Use Committee and were in compliance with the guidelines set forth in the United States Public Health Service Guide for the Care and Use of Laboratory Animals.
A celux recording chamber (Crist Instruments, Hagerstown, Md.) was positioned at 24 mm anterior in Horsley-Clark stereotaxic coordinates and centered on the midline of the brain in both monkeys. At the completion of the surgeries, animals were returned to their home cages. Antibiotics and analgesics were administered as needed during the recovery period under the direction of a veterinarian.
The monkeys were seated in a primate chair with their head restrained for the duration of the testing sessions. They were trained to execute the behavioral task described above for liquid reward and were allowed to work to satiation. Records of each animal's weight and health status were kept, and supplemental water was given as necessary. The monkeys had their heads immobilized and were trained to pursue spots of light projected on a tangent screen in front of them.
To record neuronal activity, a single tungsten microelectrode (FHC, Bowdoinham, Me.) of approximately 6 MΩ impedance at 1 kHz was lowered into the cortex through the dura using a Narishige microdrive. The position of the electrode was determined using a grid system (Crist et al., 1988). Action potentials of single units were isolated using an on-line spike-sorting system that uses a template-matching algorithm (Plexon Inc). A pulse was generated each time an action potential was detected and stored with a 1 ms resolution.
To analyze the time course of neuronal activity, spike trains were convolved with a Gaussian probability density in steps of 1 ms to generate the spike-density function (Richmond et al., 1987). The SD of the Gaussian function was set to 20 ms. The average spike density in each experimental condition was computed from all trials in which subjects pursued the target until the end of its trajectory.

[3] = higher doses, e.g. 0.6 mg/kg; cited from earlier work
[4] = Total of monkeys L, S, Y, 0.25 mg/kg i.m.

CNC1(c2ccccc2Cl)CCCCC1=O (stereo not drawn) [ketamine]
spontaneous nystagmus or centripetal drift of the eye ([1]; 0.25 mg/kg): did not evoke spontaneous nystagmus or centripetal drift of the eye
latency variance ([1]; 0.25 mg/kg i.m., as a function of delay duration): latency variance decreased
reduction of premature saccades by delay duration ([1]; 0.25 mg/kg i.m., delay durations 400-1900 ms): particularly strong for long delay durations (1400 ms and 1900 ms)
saccadic latency as a function of delay duration ([1]; 0.25 mg/kg i.m., delays 400, 900, 1400, 1900 ms, group data): prolonged saccadic latencies differently with increasing delay duration
saccadic latency (all saccades) ([1]; 0.25 mg/kg i.m., group data of three monkeys, two blocks of trials following injection): altered saccadic latency
number of premature saccades ([1]; 0.25 mg/kg i.m., group data, vs saline): strongly and significantly reduced
average premature saccade latency ([1]; 0.25 mg/kg i.m., saccades with latency <100 ms, group data): not affected
Premature saccades (number) ([1]; Monkey L, 0.25 mg/kg i.m.): 408
Premature saccades (percentage of total) ([1]; Monkey L, 0.25 mg/kg i.m.): (21%)
Visually guided saccades (number) ([1]; Monkey L, 0.25 mg/kg i.m.): 1520
Visually guided saccades (percentage of total) ([1]; Monkey L, 0.25 mg/kg i.m.): (79%
saccade amplitude ([1]; Monkey L, 0.25 mg/kg i.m., control 5.7±0.05 deg): 5.2±0.05 deg
decrease of the proportion of valid trials ([1]; Monkey L, after ketamine injection 0.25 mg/kg i.m.): ~5%
Premature saccades (number) ([1]; Monkey S, 0.25 mg/kg i.m.): 21
Premature saccades (percentage of total) ([1]; Monkey S, 0.25 mg/kg i.m.): (7%)
Visually guided saccades (number) ([1]; Monkey S, 0.25 mg/kg i.m.): 2939
Visually guided saccades (percentage of total) ([1]; Monkey S, 0.25 mg/kg i.m.): (93%)
increase of the proportion of valid trials ([1]; Monkey S, after ketamine injection 0.25 mg/kg i.m.): ~10%
Premature saccades (number) ([1]; Monkey Y, 0.25 mg/kg i.m.): 150
Premature saccades (percentage of total) ([1]; Monkey Y, 0.25 mg/kg i.m.): (6%)
Visually guided saccades (number) ([1]; Monkey Y, 0.25 mg/kg i.m.): 2537
Visually guided saccades (percentage of total) ([1]; Monkey Y, 0.25 mg/kg i.m.): (94%)
saccade amplitude ([1]; Monkey Y, 0.25 mg/kg i.m., control 5.7±0.03 deg): 6.2±0.04 deg
proportion of valid trials ([1]; Monkey Y, after ketamine injection 0.25 mg/kg i.m.): unchanged
premature saccades after single injection (saccadic latency vs trial number) ([1]; Monkey Y, single injection): sharp decrease of premature saccades
trials after injection until the number of early anticipatory saccades was strongly reduced ([1]; Monkey Y, single injection 0.25 mg/kg i.m.): Approximately 100 trials
return of premature saccades frequency to control levels ([1]; Monkey Y, single injection 0.25 mg/kg i.m., blocks of 200 trials): Only during the third block following injection
trials until cumulated sums of latencies of control and ketamine diverged ([1]; Monkeys Y and L, 13 injections, 0.25 mg/kg i.m.): approximately 75 trials
Premature saccades (number) [1, 4]: 579
Visually guided saccades (number) [1, 4]: 6996
time for ketamine to affect saccade latency ([1]; after the onset of the second block of trials, single trial 3300 ms on average): approximately 4 minutes
average difference in the latency of visually-guided saccade between conditions ([1]; ketamine 0.25 mg/kg i.m. vs saline, saccades with latency >100 ms, group data): approx. 10 ms
saccade amplitude, group data ([1]; monkeys L and Y, 0.25 mg/kg i.m., 0.25 mg/kg): did not reduce saccade amplitude
saccade amplitude, group data ([1]; monkeys L and Y, 0.25 mg/kg i.m., listed as Ketamine, 0.25 mg/kg): modestly reduced saccadic amplitude
saccade amplitude changes ([1]; monkeys L and Y, ketamine vs control): ~10%
proportion of valid trials, group level ([1]; three monkeys, 0.25 mg/kg i.m.): did not statistically alter the proportion of valid trials
activity of premotor saccadic neurons ([2]; two animals): decreases the activity of premotor saccadic neurons
average neuronal activity of movement-related SEF neurons after target appearance ([2]; 30 neurons): reduces activity after target appearance
average neuronal activity (spike density) of movement-related SEF neurons during the delay period ([2]; 30 neurons, delays 400-1900 ms): reduces neuronal activity during the delay period
average neuronal activity of fixation units/neurons [2]: increases the activity of fixation neurons
average neuronal activity of fixation units/neurons ([2]; listed as Ketamine): increased the fixation, delay and initial saccadic period
spontaneous nystagmus or centripetal drift of the eye [3]: could be observed with higher doses
